Assay results published in patent publication US9844536B2, “3-(1H-imidazo[4,5-C]pyridin-2-yl)-1H-pyrazolo[3,4-C]pyridine and therapeutic uses thereof” (Samumed, LLC, priority 2014, dated 2017).
pIC50: −log10 of the molar value.

Each compound was assayed on Wnt pathway (Sp5-Luc reporter, SW480 cells) (assay: Sp5-Luc reporter gene screening assay for Wnt activity in SW480 colon carcinoma cells). Settings: Homo sapiens.
Assay type: cell-based
Excerpt: The screening assay for Wnt activity is described as follows. Reporter cell lines can be generated by stably transducing cancer cell lines (e.g., colon cancer) or primary cells (e.g., IEC-6 intestinal cells) with a lentiviral construct that includes a Wnt-responsive promoter driving expression of the firefly luciferase gene.
SW480 colon carcinoma cells were transduced with a lentiviral vector expressing luciferase with a human Sp5 promoter consisting of a sequence of eight TCF/LEF binding sites. SW480 cells stably expressing the Sp5-Luc reporter gene and a hygromycin resistance gene were selected by treatment with 150 μg/ml of hygromycin for 7 days. These stably transduced SW480 cells were expanded in cell culture and used for all further screening activities. For Sp5-Luc reporter gene assays, the cells were plated at 10,000 cells/well in 96-well plates with growth medium containing 10% fetal calf serum and incubated overnight at 37° C. and 5% CO2. Each compound was dissolved in DMSO as a 10 mM stock in standard j-vials and used to prepare compound source plates in dose-response format with 3-fold serial dilutions and a 10 mM top concentration. Compound transfer from serially diluted source plates to assay plates containing the cells was accomplished using a pintool (Multimek 96, Beckman equipped with V&P Scientific FP1S50H pins) based liquid handling protocol. This protocol used a slotted pin to transfer 50 nl of compound from a source plate well to an assay plate well containing 50 μl of cells in growth medium. […] Control wells received 50 nl of DMSO treatment for normalization and calculating IC50 values. The treated cells were incubated at 37° C. and 5% CO2 for an additional forty-two hours. Following incubation, the growth medium was removed and 50 μl of BrightGlo luminescence reagent (Promega) was added to each well of the 96-well assay plates. The plates were placed on an orbital shaker for 5 min and then luminescence was quantified on the Victor3 (Perkin Elmer) plate reader. Readings were normalized to DMSO only treated cells, and normalized activities were utilized for IC50 calculations using the dose-response log (inhibitor) vs. response-variable slope (four parameters) nonlinear regression feature available in GraphPad Prism 5.0 or 6.0.

First: CCC(=O)Nc1cncc(-c2cc3c(-c4nc5c(-c6cccc(F)c6)nccc5[nH]4)n[nH]c3cn2)c1 [Compound 1, N-(5-(3-(4-(3-Fluorophenyl)-1H-imidazo[4,5-c]pyridin-2-yl)-1H-pyrazolo[3,4-c]pyridin-5-yl)pyridin-3-yl)propionamide]
Second: O=C(CC1CCCCC1)Nc1cncc(-c2cc3c(-c4nc5c(-c6cccc(F)c6)nccc5[nH]4)n[nH]c3cn2)c1 [Compound 951, 2-Cyclohexyl-N-(5-(3-(4-(3-fluorophenyl)-1H-imidazo[4,5-c]pyridin-2-yl)-1H-pyrazolo[3,4-c]pyridin-5-yl)pyridin-3-yl)acetamide]
The pIC50 of the first is 1.49 log units higher: 7.47 for the first, 5.98 for the second.

Going from CCCC(=O)Nc1cncc(-c2cc3c(-c4nc5c(-c6ccc(F)cc6)nccc5[nH]4)n[nH]c3cn2)c1 [Compound 43, N-(5-(3-(4-(4-Fluorophenyl)-1H-imidazo[4,5-c]pyridin-2-yl)-1H-pyrazolo[3,4-c]pyridin-5-yl)pyridin-3-yl)butyramide] to CCCC(=O)Nc1cncc(-c2cc3c(-c4nc5c(-c6ccccc6F)nccc5[nH]4)n[nH]c3cn2)c1 [Compound 69, N-(5-(3-(4-(2-Fluorophenyl)-1H-imidazo[4,5-c]pyridin-2-yl)-1H-pyrazolo[3,4-c]pyridin-5-yl)pyridin-3-yl)butyramide], the pIC50 rises from 6.89 to 7.48 (0.59 log units).

Going from CC(C)CC(=O)Nc1cncc(-c2cc3c(-c4nc5c(-c6ccccc6F)nccc5[nH]4)n[nH]c3cn2)c1 [Compound 54, N-(5-(3-(4-(2-Fluorophenyl)-1H-imidazo[4,5-c]pyridin-2-yl)-1H-pyrazolo[3,4-c]pyridin-5-yl)pyridin-3-yl)-3-methylbutanamide] to CC(C)(C)CC(=O)Nc1cncc(-c2cc3c(-c4nc5c(-c6ccccc6F)nccc5[nH]4)n[nH]c3cn2)c1 [Compound 68, N-(5-(3-(4-(2-Fluorophenyl)-1H-imidazo[4,5-c]pyridin-2-yl)-1H-pyrazolo[3,4-c]pyridin-5-yl)pyridin-3-yl)-3,3-dimethylbutanamide], the pIC50 falls from 7.32 to 6.04 (1.28 log units). The first is the more potent here.

c1cncc(-c2nccc3[nH]c(-c4n[nH]c5cnc(-c6cncc(CN7CCCCC7)c6)cc45)nc23)c1 [Compound 93, 5-(5-(Piperidin-1-ylmethyl)pyridin-3-yl)-3-(4-(pyridin-3-yl)-1H-imidazo[4,5-c]pyridin-2-yl)-1H-pyrazolo[3,4-c]pyridine] and Fc1cccc(-c2nccc3[nH]c(-c4n[nH]c5cnc(-c6cncc(OCCN7CCCC7)c6)cc45)nc23)c1 [Compound 946, 3-(4-(3-Fluorophenyl)-1H-imidazo[4,5-c]pyridin-2-yl)-5-(5-(2-(pyrrolidin-1-yl)ethoxy)pyridin-3-yl)-1H-pyrazolo[3,4-c]pyridine] cannot be ordered by pIC50: < 5.00 for the first, < 5.00 for the second.

Compared with c1ccc(CNCc2cncc(-c3cc4c(-c5nc6c(-c7cccnc7)nccc6[nH]5)n[nH]c4cn3)c2)cc1 [Compound 101, N-Benzyl-1-(5-(3-(4-(pyridin-3-yl)-1H-imidazo[4,5-c]pyridin-2-yl)-1H-pyrazolo[3,4-c]pyridin-5-yl)pyridin-3-yl)methanamine], Fc1cccc(-c2nccc3[nH]c(-c4n[nH]c5cnc(-c6cncc(OCc7ccccc7)c6)cc45)nc23)c1 [Compound 950, 5-(5-(Benzyloxy)pyridin-3-yl)-3-(4-(3-fluorophenyl)-1H-imidazo[4,5-c]pyridin-2-yl)-1H-pyrazolo[3,4-c]pyridine] is 1.59 log units lower in pIC50: 7.29 for the first, 5.70 for the second.

First: CCCCC(=O)Nc1cncc(-c2cc3c(-c4nc5c(-c6ccccn6)nccc5[nH]4)n[nH]c3cn2)c1 [Compound 148, N-(5-(3-(4-(Pyridin-2-yl)-1H-imidazo[4,5-c]pyridin-2-yl)-1H-pyrazolo[3,4-c]pyridin-5-yl)pyridin-3-yl)pentanamide]
Second: CCC(=O)Nc1cncc(-c2cc3c(-c4nc5c(-c6cccs6)nccc5[nH]4)n[nH]c3cn2)c1 [Compound 313, N-(5-(3-(4-(Thiophen-2-yl)-1H-imidazo[4,5-c]pyridin-2-yl)-1H-pyrazolo[3,4-c]pyridin-5-yl)pyridin-3-yl)propionamide]
The pIC50 of the first is 0.84 log units lower: 6.70 for the first, 7.54 for the second. The second is the more potent here.

Going from CC(C)(C)C(=O)Nc1cncc(-c2cc3c(-c4nc5c(N6CCCCC6)nccc5[nH]4)n[nH]c3cn2)c1 [Compound 164, N-(5-(3-(4-(Piperidin-1-yl)-1H-imidazo[4,5-c]pyridin-2-yl)-1H-pyrazolo[3,4-c]pyridin-5-yl)pyridin-3-yl)pivalamide] to CC(C)(C)C(=O)Nc1cncc(-c2cc3c(-c4nc5c(-c6ccoc6)nccc5[nH]4)n[nH]c3cn2)c1 [Compound 294, N-(5-(3-(4-(Furan-3-yl)-1H-imidazo[4,5-c]pyridin-2-yl)-1H-pyrazolo[3,4-c]pyridin-5-yl)pyridin-3-yl)pivalamide], the pIC50 rises from 6.85 to 7.41 (0.56 log units).

First: Cc1cn(-c2nccc3[nH]c(-c4n[nH]c5cnc(-c6cncc(NC(=O)CC(C)C)c6)cc45)nc23)cn1 [Compound 184]
Second: CC(C)CC(=O)Nc1cncc(-c2cc3c(-c4nc5c(-c6cccs6)nccc5[nH]4)n[nH]c3cn2)c1 [Compound 314, 3-Methyl-N-(5-(3-(4-(thiophen-2-yl)-1H-imidazo[4,5-c]pyridin-2-yl)-1H-pyrazolo[3,4-c]pyridin-5-yl)pyridin-3-yl)butanamide]
The pIC50 of the first is 0.95 log units higher: 7.39 for the first, 6.44 for the second.

Compared with CN1CCN(c2nccc3[nH]c(-c4n[nH]c5cnc(-c6cncc(N)c6)cc45)nc23)CC1 [Compound 211, 5-(3-(4-(4-Methylpiperazin-1-yl)-1H-imidazo[4,5-c]pyridin-2-yl)-1H-pyrazolo[3,4-c]pyridin-5-yl)pyridin-3-amine], O=C(Nc1cncc(-c2cc3c(-c4nc5c(-c6cccs6)nccc5[nH]4)n[nH]c3cn2)c1)C1CCC1 [Compound 332, N-(5-(3-(4-(Thiophen-2-yl)-1H-imidazo[4,5-c]pyridin-2-yl)-1H-pyrazolo[3,4-c]pyridin-5-yl)pyridin-3-yl)cyclobutanecarboxamide] is 0.49 log units higher in pIC50: 6.93 for the first, 7.42 for the second.

Compared with CC(C)(C)CC(=O)Nc1cncc(-c2cc3c(-c4nc5cnccc5[nH]4)n[nH]c3cn2)c1 [Compound 250, N-(5-(3-(1H-Imidazo[4,5-c]pyridin-2-yl)-1H-pyrazolo[3,4-c]pyridin-5-yl)pyridin-3-yl)-3,3-dimethylbutanamide], CC(C)CC(=O)Nc1cncc(-c2cc3c(-c4nc5c(-c6cc(F)cc(OCCN(C)C)c6)nccc5[nH]4)n[nH]c3cn2)c1 [Compound 1262, N-(5-(3-(4-(3-(2-(Dimethylamino)ethoxy)-5-fluorophenyl)-1H-imidazo[4,5-c]pyridin-2-yl)-1H-pyrazolo[3,4-c]pyridin-5-yl)pyridin-3-yl)-3-methylbutanamide] is higher in pIC50: < 5.00 for the first, 5.69 for the second.

Compared with Fc1cccc(-c2nccc3[nH]c(-c4n[nH]c5cnc(-c6cncc(OC7CCCCC7)c6)cc45)nc23)c1 [Compound 943, 5-(5-(Cyclohexyloxy)pyridin-3-yl)-3-(4-(3-fluorophenyl)-1H-imidazo[4,5-c]pyridin-2-yl)-1H-pyrazolo[3,4-c]pyridine], Fc1cccc(-c2nccc3[nH]c(-c4n[nH]c5cnc(-c6cncc(OC7CCNCC7)c6)cc45)nc23)c1 [Compound 944, 3-(4-(3-Fluorophenyl)-1H-imidazo[4,5-c]pyridin-2-yl)-5-(5-(piperidin-4-yloxy)pyridin-3-yl)-1H-pyrazolo[3,4-c]pyridine] is lower in pIC50: 6.59 for the first, < 5.00 for the second.

With Fc1cccc(-c2nccc3[nH]c(-c4n[nH]c5cnc(-c6ccncc6)cc45)nc23)c1 [Compound 952, 3-(4-(3-Fluorophenyl)-1H-imidazo[4,5-c]pyridin-2-yl)-5-(pyridin-4-yl)-1H-pyrazolo[3,4-c]pyridine] the pIC50 was 7.49.
